According to ChEMBL document CHEMBL1629647, “Preclinical evaluation of GS-9160, a novel inhibitor of human immunodeficiency virus type 1 integrase” (Antimicrob Agents Chemother, 2009):

Tests used:
[1] = tested on: Human immunodeficiency virus 1; experiment: Selectivity ratio of EC50 for antiviral activity against EFV-resistant HIV1 selected after 7 passages to EC50 for antiviral activity against wild-type HIV1 3B; assay type: functional
[2] = tested on: Human immunodeficiency virus 1; experiment: Antiviral activity against HIV1 infected in SupT1 cells assessed as accumulation of integrated junction products after 48 hrs by Alu-PCR assay; assay type: functional, organism-based; details: Human immunodeficiency virus 1, SUP-T1, 48 h
[3] = tested on: Human immunodeficiency virus 1; experiment: Selectivity ratio of EC50 for antiviral activity against NRTI-resistant HIV1 harboring RTK65R mutant gene to EC50 for antiviral activity against wild-type HIV1 3B; assay type: functional
[4] = tested on: Human immunodeficiency virus 1; experiment: Selectivity ratio of EC50 for antiviral activity against NRTI-resistant HIV1 harboring RTM184V mutant gene to EC50 for antiviral activity against wild-type HIV1 3B; assay type: functional
[5] = tested on: Human immunodeficiency virus 1; experiment: Selectivity ratio of EC50 for antiviral activity against HIV1 harboring E138K mutation in catalytic core domain of integrase to EC50 for antiviral activity against wild-type HIV1 3B; assay type: functional
[6] = tested on: Human immunodeficiency virus 1; experiment: Selectivity ratio of EC50 for antiviral activity against APV-resistant HIV1 selected after 2 passages to EC50 for antiviral activity against wild-type HIV1 3B; assay type: functional
[7] = tested on: Human immunodeficiency virus 1; experiment: Selectivity ratio of EC50 for antiviral activity against GS-9160-resistant HIV1 selected after 9 passages to EC50 for antiviral activity against wild-type HIV1 3B; assay type: functional
[8] = tested on: Human immunodeficiency virus 1; experiment: Selectivity ratio of EC50 for antiviral activity against HIV1 harboring E92V mutation in catalytic core domain of integrase to EC50 for antiviral activity against wild-type HIV1 3B; assay type: functional
[9] = tested on: Human immunodeficiency virus 1; experiment: Selectivity ratio of EC50 for antiviral activity against HIV1 harboring E92V and V151A mutation in catalytic core domain of integrase to EC50 for antiviral activity against wild-type HIV1 3B; assay type: functional
[10] = tested on: Human immunodeficiency virus 1; experiment: Antiviral activity against 0.04 MOI HIV1 3B infected in human MT-2 cells by […] dilution method in presence of 100% human serum; details: Human immunodeficiency virus 1, 3B, MT2
[11] = tested on: Human immunodeficiency virus 1; experiment: Selectivity ratio of EC50 for antiviral activity against HIV1 harboring V151A mutation in catalytic core domain of integrase to EC50 for antiviral activity against wild-type HIV1 3B; assay type: functional
[12] = tested on: Human immunodeficiency virus 1; experiment: Antiviral activity against HIV1 3B infected in SupT1 cells assessed as fold increase in viral 2-LTR circles accumulation after […] postinfection by TaqMan real-time PCR; assay type: functional, SUP-T1
[13] = tested on: Human immunodeficiency virus 1; experiment: Selectivity ratio of EC50 for antiviral activity against 3TC-resistant HIV1 selected after 8 passages to EC50 for antiviral activity against wild-type HIV1 3B; assay type: functional
[14] = tested on: Human immunodeficiency virus 1; experiment: Antiviral activity against HIV1 3B infected in human MT-2 cells by two fold dilution method in presence of 10% FBS, HSA and alpha1-AGP; assay type: functional, organism-based; details: Human immunodeficiency virus 1, 3B, MT2
[15] = tested on: Human immunodeficiency virus 1; experiment: Selectivity ratio of EC50 for antiviral activity against HIV1 harboring N155H mutation in catalytic core domain of integrase to EC50 for antiviral activity against wild-type HIV1 3B; assay type: functional
[16] = tested on: Human immunodeficiency virus 1; experiment: Selectivity ratio of EC50 for antiviral activity against APV-resistant HIV1 selected after 4 passages to EC50 for antiviral activity against wild-type HIV1 3B; assay type: functional
[17] = tested on: Human immunodeficiency virus 1; experiment: Antiviral activity against 0.02 MOI HIV1 3B infected in human MT-2 cells by two fold dilution method in presence of 100% human serum; assay type: functional, organism-based; details: Human immunodeficiency virus 1, 3B, MT2
[18] = tested on: Human immunodeficiency virus 1; experiment: Selectivity ratio of EC50 for antiviral activity against HIV1 harboring G140S mutation in catalytic core domain of integrase to EC50 for antiviral activity against wild-type HIV1 3B; assay type: functional
[19] = Selectivity index, ratio of CC50 for human T lymphocyte cells to EC50 for HIV1 BAL in presence of 10% FBS; assay type: toxicity, cell-based
[20] = Cytotoxicity against human T lymphocyte cells uninfected by XTT method in presence of 10% FBS
[21] = tested on: Human immunodeficiency virus 1; experiment: Selectivity ratio of EC50 for antiviral activity against HIV1 harboring L74M and E92V mutation in catalytic core domain of integrase to EC50 for antiviral activity against wild-type HIV1 3B; assay type: functional
[22] = tested on: Human immunodeficiency virus 1; experiment: Antiviral activity against HIV1 infected in SupT1 cells assessed as accumulation of late RT products after 12 hrs; assay type: functional, organism-based; details: Human immunodeficiency virus 1, SUP-T1, 12 h
[23] = tested on: Human immunodeficiency virus 1; experiment: Selectivity ratio of EC50 for antiviral activity against HIV1 harboring G140S and Q148H mutation in catalytic core domain of integrase to EC50 for antiviral activity against wild-type HIV1 3B; assay type: functional
[24] = tested on: Human immunodeficiency virus 1; experiment: Selectivity ratio of EC50 for antiviral activity against HIV1 harboring L74M mutation in catalytic core domain of integrase to EC50 for antiviral activity against wild-type HIV1 3B; assay type: functional
in vitro = details: human, MT4 cells
Description: Selectivity index, ratio of CC50 for human MT4 cells to EC50 for HIV1 3B in presence of 10% FBS

[25] = tested on: Human immunodeficiency virus 1; experiment: Antiviral activity against 0.001 MOI HIV1 BAL infected in human T lymphocyte cells by p24 antigen ELISA in presence of 10% FBS; assay type: functional, organism-based; details: Human immunodeficiency virus 1, BAL
[26] = tested on: Human immunodeficiency virus 1; experiment: Selectivity ratio of EC50 for antiviral activity against GS-9160-resistant HIV1 selected after 8 passages to EC50 for antiviral activity against wild-type HIV1 3B; assay type: functional
[27] = tested on: Human immunodeficiency virus 1; experiment: Selectivity ratio of EC50 for antiviral activity against HIV1 harboring E92Q mutation in catalytic core domain of integrase to EC50 for antiviral activity against wild-type HIV1 3B; assay type: functional
[28] = tested on: Human immunodeficiency virus 1; experiment: Selectivity ratio of EC50 for antiviral activity against HIV1 harboring T66I mutation in catalytic core domain of integrase to EC50 for antiviral activity against wild-type HIV1 3B; assay type: functional
[29] = tested on: Human immunodeficiency virus 1; experiment: Selectivity ratio of EC50 for antiviral activity against GS-9160-resistant HIV1 selected after 5 passages to EC50 for antiviral activity against wild-type HIV1 3B; assay type: functional
[30] = Cytotoxicity against human MT4 cells infected with HIV1 3B by three fold dilution method in presence of 10% FBS; assay type: cell-based; details: MT4 cells infected with HIV-1 3B
[31] = tested on: Human immunodeficiency virus 1; experiment: Selectivity ratio of EC50 for antiviral activity against HIV1 harboring E138K and Q148K mutation in catalytic core domain of integrase to EC50 for antiviral activity against wild-type HIV1 3B; assay type: functional
[32] = tested on: Human immunodeficiency virus 1; experiment: Selectivity ratio of EC50 for antiviral activity against NNRTI-resistant HIV1 harboring RTY181C mutant gene to EC50 for antiviral activity against wild-type HIV1 3B; assay type: functional
[33] = tested on: Human immunodeficiency virus 1; experiment: Selectivity ratio of EC50 for antiviral activity against HIV1 harboring Q148K mutation in catalytic core domain of integrase to EC50 for antiviral activity against wild-type HIV1 3B; assay type: functional
[34] = tested on: Human immunodeficiency virus 1; experiment: Selectivity ratio of EC50 for antiviral activity against HIV1 harboring N155S mutation in catalytic core domain of integrase to EC50 for antiviral activity against wild-type HIV1 3B; assay type: functional
[35] = tested on: Human immunodeficiency virus 1; experiment: Antiviral activity against 0.001 MOI HIV1 BAL infected in human T lymphocyte cells by p24 antigen ELISA in presence of 10% FBS, HSA and alpha1-AGP; assay type: functional, organism-based; details: Human immunodeficiency virus 1, BAL
[36] = tested on: Human immunodeficiency virus 1; experiment: Selectivity ratio of EC50 for antiviral activity against 3TC-resistant HIV1 selected after 4 passages to EC50 for antiviral activity against wild-type HIV1 3B; assay type: functional

For `CN(c1c2c(c(O)c3ncccc13)C(=O)N(Cc1ccc(F)cc1)C2)S(C)(=O)=O`, the “Ratio EC50” value [1] was 0.6, the EC50 [2] was 0.9 nM and the “Ratio EC50” value [3] was 1. The “Ratio EC50” value [4] was 1, the “Ratio EC50” value [5] was 12 and the “Ratio EC50” value [6] was 1. For the same compound, the “Ratio EC50” value [7] was 51, the “Ratio EC50” value [8] was 12 and the “Ratio EC50” value [9] was 104. The EC50 [10] was 30 nM, the “Ratio EC50” value [11] was 5 and the “fold change (FC)” value [12] was 1.9. For the same compound, the “Ratio EC50” value [13] was 0.5, the EC50 [14] was 15 nM and the “Ratio EC50” value [15] was 50. The “Ratio EC50” value [16] was 1.6, the EC50 [17] was 19 nM and the “Ratio EC50” value [18] was 2. The selectivity ratio [19] was 2670, the CC50 [20] was 4 µM and the “Ratio EC50” value [21] was 67. The EC50 [22] was over 1000 nM, the “Ratio EC50” value [23] was 1132 and the “Ratio EC50” value [24] was 1. For the same compound, the selectivity ratio (in vitro) was 457, the EC50 [25] was 1.5 nM and the “Ratio EC50” value [26] was 60. For the same compound, the “Ratio EC50” value [27] was 32, the “Ratio EC50” value [28] was 1 and the “Ratio EC50” value [29] was 4.3. The CC50 [30] was 320 nM, the “Ratio EC50” value [31] was 250 and the “Ratio EC50” value [32] was 1. For the same compound, the “Ratio EC50” value [33] was 23, the “Ratio EC50” value [34] was 12 and the EC50 [35] was 15 nM. The “Ratio EC50” value [36] was 0.5.
For `O=C(NCc1ccc(F)cc1)c1nc(N2CCCCS2(=O)=O)c2cccnc2c1O`, the “Ratio EC50” value [1] was 1.3, the EC50 [2] was 1.3 nM and the “Ratio EC50” value [3] was 1. The “Ratio EC50” value [4] was 1, the “Ratio EC50” value [5] was 8 and the “Ratio EC50” value [6] was 2.5. For the same compound, the “Ratio EC50” value [7] was 49, the “Ratio EC50” value [8] was 8 and the “Ratio EC50” value [9] was 111. For the same compound, the EC50 [10] was 200 nM, the “Ratio EC50” value [11] was 5 and the “fold change (FC)” value [12] was 3. The “Ratio EC50” value [13] was 0.8, the EC50 [14] was 43 nM and the “Ratio EC50” value [15] was 65. The “Ratio EC50” value [16] was 1.9, the EC50 [17] was 96 nM and the “Ratio EC50” value [18] was 2. The selectivity ratio [19] was 700, the CC50 [20] was 2.1 µM and the “Ratio EC50” value [21] was 39. The EC50 [22] was over 1000 nM, the “Ratio EC50” value [23] was 478 and the “Ratio EC50” value [24] was 1. For the same compound, the selectivity ratio (in vitro) was 400, the EC50 [25] was 3 nM and the “Ratio EC50” value [26] was 65. The “Ratio EC50” value [27] was 42, the “Ratio EC50” value [28] was 2 and the “Ratio EC50” value [29] was 2.7. For the same compound, the CC50 [30] was 1600 nM, the “Ratio EC50” value [31] was 314 and the “Ratio EC50” value [32] was 1. For the same compound, the “Ratio EC50” value [33] was 35, the “Ratio EC50” value [34] was 21 and the EC50 [35] was 60 nM. For the same compound, the “Ratio EC50” value [36] was 1.3.
